“Also recorded” adds a separate entry of the source.
Key:
Kelly cells = assay: ATPlite cell growth inhibition assay, Kelly cell lines treated 72 hours; format: cell-based; settings: for Kelly NB cell growth inhibition: 72 hours, ATPlite, normalized to DMSO; for IC50: ND: not detected
Method: Compounds CPD 1 to CPD 22 were tested via ATPlite™ assay (ATPlite™ 1000 assay kit, PerkinElmer®, USA) using standard protocol. […] The signal is normalized to DMSO treated cells.

HAT (EP300) domain = target: T1, HAT (EP300) domain (Homo sapiens, UniProt Q09472); assay: AlphaScreen assay, HAT (EP300) domain; format: binding
T1 sequence (Q09472 1287-1663 limits assumed): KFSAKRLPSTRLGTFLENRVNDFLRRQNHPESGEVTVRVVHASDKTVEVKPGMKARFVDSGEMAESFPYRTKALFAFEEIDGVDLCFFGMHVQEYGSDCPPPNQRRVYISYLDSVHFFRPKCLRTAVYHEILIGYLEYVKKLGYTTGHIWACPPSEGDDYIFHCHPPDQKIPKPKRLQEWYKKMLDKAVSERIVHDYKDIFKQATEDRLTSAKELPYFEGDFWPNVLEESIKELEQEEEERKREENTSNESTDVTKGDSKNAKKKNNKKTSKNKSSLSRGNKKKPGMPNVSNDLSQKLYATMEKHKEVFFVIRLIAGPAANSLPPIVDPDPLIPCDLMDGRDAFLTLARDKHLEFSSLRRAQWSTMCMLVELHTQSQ
Method: The AlphaScreen™ assay was performed in 384-well plate format using white AlphaPlate (PerkinElmer®, USA), and transfer of pre-diluted compound (100 nL) was performed using a Janus Workstation (PerkinElmer®, USA). All subsequent steps were carried out in assay buffer (50 mM 4-(2-hydroxyethyl)-1-piperazineethanesulfonic acid (HEPES), pH 7.5, 0.1% (wt/vol) bovine serum albumin (BSA) and 0.01% (vol/vol) Tween-20). In brief, 10 μL of assay buffer containing enzyme (2 nM Final) was pre-incubated for 15 min with dilutions of compound. The enzyme reaction was initiated by the addition of substrate (5 μL) consisting of acetyl Co-A 2-OG (5 μM Final).
FAS final concentration was 10 μM. Histone tail-GGK Biotin final concentration was 100 nM Final. The enzyme reaction was allowed to proceed for 30 minutes and was stopped by the addition of 5 μL of assay buffer containing ethylenediaminetetraacetic acid (EDTA) (40 mM) and NaCl (1200 mM). The final concentration of dimethyl sulfoxide (DMSO) was 1%. Streptavidin donor beads (0.08 mg/mL) and protein-A-conjugated acceptor beads (0.08 mg/mL) were preincubated for 1 h with antibody to methyl mark (300 ng/mL Final), and the presence of histone H3 product acetylation mark was detected using the preincubated AlphaScreen™ beads (5 μL). Detection was allowed to proceed for 2 hours at rt, and the assay plates were read on the Envision™ 2104 plate reader. Data were normalized to the (no-enzyme) control, and the IC50 values were determined via nonlinear regression curve fit using GraphPad Prism (FIG. 4E-FIG. 4H).
AlphaScreen™ assay was used to determine the binding of inventive degrader compound toward both CRBN and HAT domain. The experimental protocol is the same as in Example 26.

[1] = in mice; cited from earlier work
cereblon (CRBN) = cereblon (CRBN) (Homo sapiens, UniProt Q96SW2); assay: AlphaScreen assay, cereblon (CRBN); format: binding
Sequence of cereblon (CRBN) (Q96SW2 whole entry): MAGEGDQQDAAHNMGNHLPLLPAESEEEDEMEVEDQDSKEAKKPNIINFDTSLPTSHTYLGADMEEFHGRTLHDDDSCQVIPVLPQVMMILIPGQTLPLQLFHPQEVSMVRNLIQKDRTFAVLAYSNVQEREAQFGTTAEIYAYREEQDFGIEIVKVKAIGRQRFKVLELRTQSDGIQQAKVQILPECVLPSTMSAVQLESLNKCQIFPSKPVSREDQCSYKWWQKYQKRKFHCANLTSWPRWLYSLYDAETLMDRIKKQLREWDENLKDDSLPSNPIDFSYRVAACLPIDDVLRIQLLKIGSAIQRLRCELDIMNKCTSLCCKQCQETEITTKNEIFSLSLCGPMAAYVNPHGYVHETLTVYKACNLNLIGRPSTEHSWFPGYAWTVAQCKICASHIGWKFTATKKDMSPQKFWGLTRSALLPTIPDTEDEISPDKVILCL
Text: An AlphaLISA® assay for EP300 catalytic function (FIG. 3B) and an AlphaScreen™ assay for EP300 bromodomain and cereblon (CRBN) using biotinylated tagged small molecules as a probe for EP300 bromodomain and CRBN, respectively, were developed (FIG. 3C).
AlphaScreen™ assay was used to determine the binding of inventive degrader compound toward both CRBN and HAT domain.

Kelly NB cells = assay: EP300/CBP inhibitors in Kelly NB cells (colony formation, CellTiter-Glo growth assays); format: cell-based
Method: The effects of several EP300/CBP inhibitors, C646, CBP30 and A485 were tested in Kelly NB cells. (FIG. 2B).

## C[C@H](N(Cc1ccc(F)cc1)C(=O)CN1C(=O)O[C@@]2(CCc3cc(NC(=O)CCCNC(=O)CCCCCCCCCCCNc4ccc5c(c4)C(=O)N(C4CCC(=O)NC4=O)C5=O)ccc32)C1=O)C(F)(F)F (stereo partly shown)
Kelly cells
  Kelly NB cell growth inhibition: outperformed positive control A485; also recorded: Cell growth inhibition was observed
  IC50: 0.31 µM

## CC(N(Cc1ccc(F)cc1)C(=O)CN1C(=O)O[C@@]2(CCc3cc(NC(=O)CCCNC(=O)CCCCCNc4ccc5c(c4)C(=O)N(C4CCC(=O)NC4=O)C5=O)ccc32)C1=O)C(F)(F)F (stereo in doubt) [CPD 10, 6-((2-(2,6-dioxopiperidin-3-yl)-1,3-dioxoisoindolin-5-yl)amino)-N-(4-(((R)-3′-(2-((4-fluorobenzyl)((R)-1,1,1-trifluoropropan-2-yl)amino)-2-oxoethyl)-2′,4′-dioxo-2,3-dihydrospiro[indene-1,5′-oxazolidin]-5-yl)amino)-4-oxobutyl)hexanamide]
Kelly cells
  Kelly NB cell growth inhibition: Cell growth inhibition was observed
  IC50: 1.15 µM

## CNC(=O)Nc1ccc2c(c1)CC[C@@]21OC(=O)N(CC(=O)N(Cc2ccc(F)cc2)[C@@H](C)C(F)(F)F)C1=O [A485, N-[(4-fluorophenyl)methyl]-2-{(1R)-5-[(methylcarbamoyl)amino]-2′,4′-dioxo-2,3-dihydro-3′H-spiro[indene-1,5′-[1,3]oxazolidin]-3′-yl}-N-[(2S)-1,1,1-trifluoropropan-2-yl]acetamide]
HAT (EP300) domain
  binding to HAT (EP300) domain: bind
[1]
  half life: 42 min
Cereblon (CRBN)
  binding to cereblon (CRBN): no binding was observed
Kelly NB cells; Kelly NB cells, increasing doses
  apoptosis: induction of apoptosis
Kelly NB cells; Kelly NB cells, increasing doses, CellTiter-Glo
  growth inhibition: growth inhibition
Kelly NB cells; at submicromolar levels
  growth changes in cellular models of NB compared with C646 and CBP30: superior to other known EP300/CBP inhibitors

## C[C@H](N(Cc1ccc(F)cc1)C(=O)CN1C(=O)O[C@@]2(CCc3cc(NC(=O)CCOCCOCCOCCOCCOCCOCCNc4cccc5c4C(=O)N(C4CCC(=O)NC4=O)C5=O)ccc32)C1=O)C(F)(F)F (stereo partly drawn) [CPD 2, 1-((2-(2,6-dioxopiperidin-3-yl)-1,3-dioxoisoindolin-4-yl)amino)-N—((R)-3′-(2-((4-fluorobenzyl)((S)-1,1,1-trifluoropropan-2-yl)amino)-2-oxoethyl)-2′,4′-dioxo-2,3-dihydrospiro[indene-1,5′-oxazolidin]-5-yl)-3,6,9,12,15,18-hexaoxahenicosane-21-amide]
HAT (EP300) domain
  binding to HAT (EP300) domain: bind
Cereblon (CRBN)
  binding to cereblon (CRBN): bind
Kelly cells
  Kelly NB cell growth inhibition: did not inhibit cellular growth
  IC50: 3.42 µM

## C[C@H](N(Cc1ccc(F)cc1)C(=O)CN1C(=O)O[C@@]2(CCc3cc(NC(=O)CCc4ccc(NC(=O)CCCCCCCCCCCNc5ccc6c(c5)C(=O)N(C5CCC(=O)NC5=O)C6=O)cc4)ccc32)C1=O)C(F)(F)F (stereo partly drawn) [CPD 13, 12-((2-(2,6-dioxopiperidin-3-yl)-1,3-dioxoisoindolin-5-yl)amino)-N-(4-(3-(((R)-3′-(2-((4-fluorobenzyl)((S)-1,1,1-trifluoropropan-2-yl)amino)-2-oxoethyl)-2′,4′-dioxo-2,3-dihydrospiro[indene-1,5′-oxazolidin]-5-yl)amino)-3-oxopropyl)phenyl)dodecanamide]
Kelly cells
  Kelly NB cell growth inhibition: Cell growth inhibition was observed
  IC50: 1.39 µM

## CC(=O)Nc1ccc2c(c1)CC[C@@]21OC(=O)N(CC(=O)N(Cc2ccc(F)cc2)[C@H](C)CNC(=O)CCCCCCCCCCCNc2ccc3c(c2)C(=O)N(C2CCC(=O)NC2=O)C3=O)C1=O (stereo partly drawn) [CPD 15, N—((R)-2-(2-((R)-5-acetamido-2′,4′-dioxo-2,3-dihydrospiro[indene-1,5′-oxazolidin]-3′-yl)-N-(4-fluorobenzyl)acetamido)propyl)-12-((2-(2,6-dioxopiperidin-3-yl)-1,3-dioxoisoindolin-5-yl)amino)dodecanamide]
Kelly cells
  Kelly NB cell growth inhibition: Cell growth inhibition was observed
  IC50: 1.76 µM

## CC(=O)Nc1ccc2c(c1)CC[C@@]21OC(=O)N(CC(=O)N(Cc2ccc(F)cc2)[C@@H](C)CNC(=O)CCCCCCCCCCCNc2ccc3c(c2)C(=O)N(C2CCC(=O)NC2=O)C3=O)C1=O (stereo partly drawn) [CPD 16, N—((S)-2-(2-((R)-5-acetamido-2′,4′-dioxo-2,3-dihydrospiro[indene-1,5′-oxazolidin]-3′-yl)-N-(4-fluorobenzyl)acetamido)propyl)-12-((2-(2,6-dioxopiperidin-3-yl)-1,3-dioxoisoindolin-5-yl)amino)dodecanamide]
Kelly cells
  Kelly NB cell growth inhibition: outperformed positive control A485; also recorded: Cell growth inhibition was observed
  IC50: 0.27 µM

## Nc1cccc2c1C(=O)N(C1CCC(=O)NC1=O)C2=O (stereo not shown) [pomalidomide, reference compound]
Cereblon (CRBN)
  binding to cereblon (CRBN): bind

## O=C1CCC(N2C(=O)c3ccccc3C2=O)C(=O)N1 (stereo not shown) [thalidomide, reference compound]
Cereblon (CRBN)
  binding to cereblon (CRBN): bind

From patent publication US12428412B2 (DANA-FARBER CANCER INSTITUTE, INC., priority 2018, dated 2025)
